Results taken from paper PMC4423596 (Angewandte Chemie (International ed. in English), 2015).

Columns and labels:
CBP/p300 KIX domain [1] = molecular target: T1, CBP/p300 KIX domain (Mus musculus, UniProt P45481); test: PrOF NMR chemical shift perturbation at fixed ligand concentration; format: binding; conditions: 3FY-labeled KIX; 833 µM to 5 mM small molecule
CBP/p300 KIX domain [2] = molecular target: T1, CBP/p300 KIX domain; test: PrOF NMR ligand titration; format: binding
MLL-KIX PPI site = conditions: cited from earlier work

T1 sequence (P45481 586-665): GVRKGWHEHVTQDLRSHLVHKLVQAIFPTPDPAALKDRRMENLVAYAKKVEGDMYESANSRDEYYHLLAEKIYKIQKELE

SMILES | chemical shift perturbation (PrOF NMR), in words (CBP/p300 KIX domain [1]) | IC50 (MLL-KIX PPI site) [µM] | other results
O=C(Nc1ccc(Cl)cc1)c1cc2ccccc2cc1OP(=O)(O)O [KG-501, Naphthol AS-E phosphate] | identified a binding interaction |  | 
CC(C(=O)O)c1ccc(-c2ccccc2)c(F)c1 (stereo not drawn) [Flurbiprofen, flurbiprofen] |  |  | Kd (CBP/p300 KIX domain [2]): 5900 ± 600 µM; Ligand Efficiency (CBP/p300 KIX domain [2]; calculated from the PrOF Kd): 0.17 kcal mol^−1 NHA^−1
CCCc1cc(OC)cc(O)c1C(=O)Oc1c(OC)cc(CCC)c(C(=O)O)c1O [sekikaic acid] |  | 34 | 
CC(C)Cc1ccc(C(C)C(=O)O)cc1 (stereo not drawn) [ibuprofen] | significant chemical shift perturbations |  | 
CCCCCc1c2c(cc(O)c1C(=O)O)OC(=O)c1c(cc(OC)cc1C(=O)CCCC)O2 [lobaric acid] |  | 17 | 
